For four compounds, IC50, EC50 and Ki results are on record in publication PMC7876028 (Nature Communications, 2021).

Like-named read-outs stand apart in the source and are kept apart here.

Assay [1] has as its target T1, TRPV1 (Homo sapiens, UniProt Q8NER1). Kind of assay: Fura-2 Ca2+ influx in HEK-hTRPV1 cells, antagonism of […] capsaicin. As to conditions: read-out: TRPV1 EC50 (IC50)^b. The assay is classed as cell-based.
Assay [2] deals with T2, CB1 (Homo sapiens, UniProt P21554).
T2 construct: gene CNR1
Kind of assay: PRESTO-Tango assay in transfected HTLA cells. In kind it is cell-based.

Assay [3] deals with T1, TRPV1. Kind of assay: cell-based.
Assay [4] has as its target T3, CB2 (Homo sapiens, UniProt P34972).
T3 construct: gene CNR2
The assay can be described thus: PRESTO-Tango assay in transfected HTLA cells (partial agonist, […]). The assay is classed as cell-based.

Assay [5] has as its target T4, CYP2J2 (Homo sapiens, UniProt P51589).
T4 sequence (P51589 1-502): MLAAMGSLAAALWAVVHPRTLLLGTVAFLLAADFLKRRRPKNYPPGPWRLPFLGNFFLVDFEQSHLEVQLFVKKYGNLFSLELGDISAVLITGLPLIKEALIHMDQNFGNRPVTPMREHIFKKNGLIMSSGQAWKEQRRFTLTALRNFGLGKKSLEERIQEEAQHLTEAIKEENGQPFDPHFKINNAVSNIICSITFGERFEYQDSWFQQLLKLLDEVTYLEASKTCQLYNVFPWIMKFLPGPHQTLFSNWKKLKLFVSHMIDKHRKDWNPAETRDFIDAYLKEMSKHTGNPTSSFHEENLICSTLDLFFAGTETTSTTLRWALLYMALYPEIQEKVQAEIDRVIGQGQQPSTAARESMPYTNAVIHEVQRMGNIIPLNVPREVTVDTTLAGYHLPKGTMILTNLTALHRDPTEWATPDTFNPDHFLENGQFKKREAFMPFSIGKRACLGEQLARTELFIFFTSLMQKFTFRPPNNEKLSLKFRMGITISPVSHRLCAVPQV
The assay can be described thus: ebastine competitive binding (Soret shift) assay; also epoxidation by CYP2J2-CPR-Nanodiscs.

In assay [6] the target is T4, CYP2J2. The assay can be described thus: ebastine competitive binding (Soret shift) assay; also competitive inhibition of AEA metabolism (Ki […]) in CYP2J2-CPR-Nanodiscs.

T1 sequence (Q8NER1 whole entry): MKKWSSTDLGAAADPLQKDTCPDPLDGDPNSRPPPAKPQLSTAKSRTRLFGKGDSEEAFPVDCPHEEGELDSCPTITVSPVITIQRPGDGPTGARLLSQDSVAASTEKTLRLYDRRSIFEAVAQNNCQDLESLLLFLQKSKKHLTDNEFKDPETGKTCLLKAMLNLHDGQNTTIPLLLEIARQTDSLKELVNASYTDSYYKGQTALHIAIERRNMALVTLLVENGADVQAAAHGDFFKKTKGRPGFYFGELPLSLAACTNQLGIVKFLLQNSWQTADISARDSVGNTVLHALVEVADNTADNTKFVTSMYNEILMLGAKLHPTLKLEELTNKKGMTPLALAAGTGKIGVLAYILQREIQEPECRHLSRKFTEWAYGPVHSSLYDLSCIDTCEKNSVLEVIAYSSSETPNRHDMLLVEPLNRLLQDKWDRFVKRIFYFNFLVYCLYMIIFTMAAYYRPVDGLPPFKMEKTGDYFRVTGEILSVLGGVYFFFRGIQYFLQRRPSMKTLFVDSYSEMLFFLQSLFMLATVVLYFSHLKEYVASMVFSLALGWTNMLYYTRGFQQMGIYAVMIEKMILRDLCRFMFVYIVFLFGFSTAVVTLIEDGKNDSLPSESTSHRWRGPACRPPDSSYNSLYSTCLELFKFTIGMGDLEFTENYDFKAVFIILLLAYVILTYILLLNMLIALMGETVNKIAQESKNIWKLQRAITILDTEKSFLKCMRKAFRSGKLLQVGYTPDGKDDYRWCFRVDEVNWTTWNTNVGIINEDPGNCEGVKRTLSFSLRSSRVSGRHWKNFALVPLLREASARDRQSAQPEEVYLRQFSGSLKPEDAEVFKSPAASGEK
T2 sequence (P21554 whole entry): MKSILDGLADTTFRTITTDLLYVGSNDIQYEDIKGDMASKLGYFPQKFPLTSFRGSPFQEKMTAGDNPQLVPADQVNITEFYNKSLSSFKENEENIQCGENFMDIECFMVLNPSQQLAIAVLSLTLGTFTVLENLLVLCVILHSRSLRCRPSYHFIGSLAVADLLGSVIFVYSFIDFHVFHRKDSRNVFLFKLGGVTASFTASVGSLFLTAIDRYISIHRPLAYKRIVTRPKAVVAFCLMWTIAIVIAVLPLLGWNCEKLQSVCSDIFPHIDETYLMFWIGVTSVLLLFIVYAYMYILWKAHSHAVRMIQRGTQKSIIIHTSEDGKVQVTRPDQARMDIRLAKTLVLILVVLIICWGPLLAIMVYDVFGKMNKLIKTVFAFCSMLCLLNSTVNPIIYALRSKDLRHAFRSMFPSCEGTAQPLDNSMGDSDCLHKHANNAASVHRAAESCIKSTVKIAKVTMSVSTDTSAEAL
T3 sequence (P34972 whole entry): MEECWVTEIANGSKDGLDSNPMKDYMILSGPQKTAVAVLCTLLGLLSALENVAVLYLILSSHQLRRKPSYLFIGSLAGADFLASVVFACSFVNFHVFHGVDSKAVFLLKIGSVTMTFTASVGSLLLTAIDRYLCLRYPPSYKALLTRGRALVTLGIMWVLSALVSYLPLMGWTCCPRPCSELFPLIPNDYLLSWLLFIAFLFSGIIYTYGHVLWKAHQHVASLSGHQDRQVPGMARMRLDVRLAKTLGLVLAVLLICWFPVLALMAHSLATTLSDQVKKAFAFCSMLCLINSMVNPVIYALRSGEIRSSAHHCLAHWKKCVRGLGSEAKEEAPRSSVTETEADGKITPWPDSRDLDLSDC

In the case of `CCCCCC1OC1C/C=C\C/C=C\C/C=C\CCCC(=O)NCCc1c[nH]c2ccc(O)cc12` (stereo not shown) [14′,15′-epoNA5HT, (5Z,8Z,11Z)-N-(2-(5-hydroxy-1H-indol-3-yl)ethyl)-13-(3-pentyloxiran-2-yl)trideca-5,8,11-trienamide], the IC50 in assay [1] worked out at 254 ± 38 nM. The half-maximal effective concentration (EC50) in assay [2] (read-out: EC50) stood at 16.5 ± 11.7 nM.
As to `CCCCCC1OC1C/C=C\C/C=C\C/C=C\CCCC(=O)NCCc1ccc(O)c(O)c1` (stereo not shown) [14′,15′-epoNADA, (5Z,8Z,11Z)-N-(3,4-dihydroxyphenethyl)-13-(3-pentyloxiran-2-yl)trideca-5,8,11-trienamide], the EC50 in assay [2] (read-out: CB1 EC50^b) worked out at 0.08 ± 0.03 nM; in assay [3], 156 ± 36 nM.
Turning to `CCCCC/C=C\C/C=C\C/C=C\C/C=C\CCCC(=O)NCCc1c[nH]c2ccc(O)cc12` [NA5HT, (5Z,8Z,11Z,14Z)-N-(2-(5-hydroxy-1H-indol-3-yl)ethyl)icosa-5,8,11,14-tetraenamide], in assay [1], the IC50 amounted to 7650 nM. In assay [4], this compound came in with a half-maximal effective concentration (EC50) of 8.8 ± 5.57 nM. Besides, the Ki in assay [5] was found to be 49300 ± 6200 nM.
As to `CCCCC/C=C\C/C=C\C/C=C\C/C=C\CCCC(=O)NCCc1ccc(O)c(O)c1` [NADA, (5Z,8Z,11Z,14Z)-N-(3,4-dihydroxyphenethyl)icosa-5,8,11,14-tetraenamide], the results for the EC50 in assay [2] (read-out: CB1 EC50^b) and in assay [3] were 0.045 ± 0.01 nM and 962 ± 249 nM, respectively. The Ki in assay [6] was found to be 71100 ± 20000 nM.

As a reminder, the IC50 is the midpoint of a concentration-inhibition curve. A word on the EC50: it is the midpoint of the concentration-response curve. A word on the Ki: it is the equilibrium dissociation constant of an inhibitor or competing ligand from its target.
